The text below walks through data of ChEMBL document CHEMBL5346941, “Design, synthesis and evaluation of novel monoamine oxidase B (MAO-B) inhibitors with improved pharmacokinetic properties for Parkinson's disease” (Eur J Med Chem, 2023).

Structures are written as SMILES. Active and inactive are the calls of the source. The rule behind the calls is not given here.

The term inhibition denotes the change of the read-out against control, counted positive when it falls. By Cmax is commonly meant the highest concentration seen after dosing. In general, AUC(0-t) refers to exposure summed from dosing to a finite time, without extrapolation to infinity. Broadly, the IC50 is the concentration needed to halve the response being measured. The clearance is the rate of elimination divided by the concentration.

A short description of data set [1]: Metabolic stability in rat liver microsomes assessed as half life at 1 uM incubated for 60 mins in presence of NADPH by LC-MS/MS analysis. Format: ADME, Microsome. Background: Liver microsomes are vesicles of endoplasmic reticulum, rich in cytochrome P450 enzymes.
The nature of data set [2]: Protein binding in monkey plasma at 0.1 to 10 uM incubated for 5 hrs by LC-MS/MS based rapid equilibrium dialysis method. Format: ADME, cell-free, Macaca mulatta. The conditions noted are these: rhesus monkey, dose 0.1-10 µM, read-out: PPB (converted). On the technique in general: Equilibrium dialysis compares concentrations on both sides of a semipermeable membrane.
Data set [3] concerns Mus musculus. As to the kind of experiment: In vivo inhibition of MAO-B in ICR mouse assessed as reduction in enzyme activity in brain at 2 mg/kg, ip administered once for 30 to 60 mins by amplex red based assay. Format: functional, organism-based. The conditions noted are these: time 30-60 min.
A short description of data set [4]: Elimination half life in fasted ICR mouse at 2 mg/kg, iv measured for 24 hrs. To be noted: in vivo, read-out: beta t1/2 (converted). Format: ADME, organism-based.
Data set [5] can be described thus: Metabolic stability in rat liver microsomes assessed as intrinsic clearance at 1 uM incubated for 60 mins in presence of NADPH by LC-MS/MS analysis. Format: ADME, Microsome. The conditions noted are these: read-out: CLH.
In data set [6] the target is CYP2D6 (Homo sapiens, UniProt P10635). Kind of data set: Inhibition of CYP2D6 in human liver microsomes using propranolol as substrate at 10 uM incubated for 10 mins in presence of NADPH by LC-MS/MS analysis relative to control. Format: ADME, Microsome. To be noted: probe propranolol.
A short description of data set [7]: Ratio of drug concentration in Sprague-Dawley brain to plasma at 5 mg/kg, ip measured after 15 mins by LC-MS/MS analysis. The conditions noted are these: rat, read-out: BPR. Format: ADME, organism-based.
A short description of data set [8]: Metabolic stability in human liver microsomes assessed as half life at 1 uM incubated for 60 mins in presence of NADPH by LC-MS/MS analysis. Format: ADME, Microsome.
A short description of data set [9]: Cmax in fasted Sprague-Dawley rat at 1 mg/kg, iv measured for 24 hrs. Format: ADME, organism-based. Further details: dose 1 mg/kg, time 24 hrs, route iv. To be noted: Sprague-Dawley, in vivo, read-out: Cmax.
Data set [10] in a line: Elimination half life in fasted Sprague-Dawley rat at 5 mg/kg, IG measured for 24 hrs. Format: ADME, organism-based. The conditions noted are these: in vivo, po, read-out: beta t1/2 (converted).
Data set [11] can be described thus: Bioavailability in fasted Sprague-Dawley rat at 5 mg/kg, IG measured for 24 hrs. Format: ADME, organism-based. The conditions noted are these: in vivo, po.
Data set [12] is described as follows: Protein binding in dog plasma at 1 uM incubated for 5 hrs by LC-MS/MS based rapid equilibrium dialysis method. Format: ADME, cell-free, Canis lupus familiaris. The conditions noted are these: read-out: PPB (converted).
The nature of data set [13]: Cmax in fasted Sprague-Dawley rat at 5 mg/kg, IG measured for 24 hrs. Format: ADME, organism-based. Further details: dose 5 mg/kg, time 24 hrs, route ig. The conditions noted are these: in vivo, po.
Data set [14] can be described thus: Metabolic stability in dog liver microsomes assessed as intrinsic clearance at 1 uM incubated for 60 mins in presence of NADPH by LC-MS/MS analysis. Format: ADME, Canis lupus familiaris, Microsome. The conditions noted are these: read-out: CLH.
Data set [15] is described as follows: Metabolic stability in mouse liver microsomes assessed as intrinsic clearance at 1 uM incubated for 60 mins in presence of NADPH by LC-MS/MS analysis. The conditions noted are these: read-out: CLH. Format: ADME, Microsome.
For data set [16], the target named is CYP2C19 (Homo sapiens, UniProt P33261). Kind of data set: Inhibition of CYP2C19 in human liver microsomes using omeprazole as substrate at 10 uM incubated for 45 mins in presence of NADPH by LC-MS/MS analysis relative to control. Format: ADME, Microsome. To be noted: probe omeprazole.
Data set [17] has as its system Mus musculus. Kind of data set: Anti-parkinson activity in MPTP-induced dopamine deficit C57BL/6 mouse model assessed as increase in dopamine concentration in striatum at 3 to 10 mg/kg, ip pretreated with MPTP for 4 hrs followed by compound administration for 5 times once every 4 hrs further incubated with L-dopa at 50 mg/kg for 30 mins prior to last dose and measured after 30 mins by HPLC analysis. Format: functional, organism-based. The conditions noted are these: dose 3-10 mg/kg, time 16.5 hrs.

A short description of data set [18]: AUC (0 to t) in fasted Sprague-Dawley rat at 5 mg/kg, IG measured for 24 hrs. Format: ADME, organism-based. The arrangement: dose 5 mg/kg, time 24 hrs, route ig. The conditions noted are these: in vivo, po.
Data set [19] is described as follows: AUC (0 to t) in fasted ICR mouse at 5 mg/kg, IG measured for 24 hrs. The arrangement: dose 5 mg/kg, time 24 hrs, route ig. Format: ADME, organism-based. To be noted: in vivo, po.
Data set [20] addresses T1, Amine oxidase [flavin-containing] A (Homo sapiens, UniProt P21397).
T1 sequence (P21397 whole entry): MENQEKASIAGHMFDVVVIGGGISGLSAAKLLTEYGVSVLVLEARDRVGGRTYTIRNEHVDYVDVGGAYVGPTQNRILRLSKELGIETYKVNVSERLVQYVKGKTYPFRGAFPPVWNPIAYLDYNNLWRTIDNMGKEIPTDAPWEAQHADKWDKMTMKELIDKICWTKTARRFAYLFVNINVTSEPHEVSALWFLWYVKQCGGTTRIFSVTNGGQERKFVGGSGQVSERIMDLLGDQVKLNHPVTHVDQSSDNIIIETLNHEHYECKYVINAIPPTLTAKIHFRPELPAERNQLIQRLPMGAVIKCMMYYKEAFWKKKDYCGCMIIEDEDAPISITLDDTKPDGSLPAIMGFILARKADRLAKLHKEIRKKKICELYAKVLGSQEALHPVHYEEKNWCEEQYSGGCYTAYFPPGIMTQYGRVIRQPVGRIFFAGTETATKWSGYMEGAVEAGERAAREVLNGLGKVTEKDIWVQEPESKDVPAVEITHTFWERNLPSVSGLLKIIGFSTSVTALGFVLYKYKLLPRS
Kind of data set: Inhibition of recombinant human MAO-A expressed in Sf9 cells using […] as substrate preincubated for 15 mins followed by substrate addition and measured after 60 mins by luciferin based luminescence analysis.

The target of data set [21] is T2, Amine oxidase [flavin-containing] B (Homo sapiens, UniProt P27338).
T2 sequence (P27338 whole entry): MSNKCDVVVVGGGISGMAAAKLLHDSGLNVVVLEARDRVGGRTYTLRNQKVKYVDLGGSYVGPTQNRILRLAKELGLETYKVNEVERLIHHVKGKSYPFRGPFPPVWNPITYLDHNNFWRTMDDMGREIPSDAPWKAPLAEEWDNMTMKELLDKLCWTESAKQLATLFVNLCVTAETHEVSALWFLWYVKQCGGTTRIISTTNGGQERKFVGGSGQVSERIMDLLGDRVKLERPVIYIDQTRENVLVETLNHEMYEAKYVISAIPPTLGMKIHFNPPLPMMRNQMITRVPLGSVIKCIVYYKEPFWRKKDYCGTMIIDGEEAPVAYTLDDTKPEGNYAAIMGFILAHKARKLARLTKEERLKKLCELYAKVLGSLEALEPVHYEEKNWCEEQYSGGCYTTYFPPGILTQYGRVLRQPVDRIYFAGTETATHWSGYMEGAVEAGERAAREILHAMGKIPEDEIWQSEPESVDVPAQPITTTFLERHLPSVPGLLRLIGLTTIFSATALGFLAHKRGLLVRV
As to the kind of experiment: Inhibition of recombinant human MAO-B expressed in Sf9 cells using p-tyramine as substrate preincubated for 15 mins followed by substrate addition and measured after 60 mins by luciferin based luminescence analysis.

Data set [22] is described as follows: Metabolic stability in dog liver microsomes assessed as half life at 1 uM incubated for 60 mins in presence of NADPH by LC-MS/MS analysis. Format: ADME, Canis lupus familiaris, Microsome.
Data set [23] is described as follows: Clearance in fasted Sprague-Dawley rat at 1 mg/kg, iv measured for 24 hrs. Format: ADME, organism-based. The conditions noted are these: in vivo.
For data set [24], the system named is Mus musculus. As to the kind of experiment: Anti-parkinson activity in MPTP-induced dopamine deficit C57BL/6 mouse model assessed as increase in dopamine concentration in striatum at 3 to 10 mg/kg, ip pretreated with MPTP for 4 hrs followed by compound administration for 5 times once every 4 hrs further incubated with benserazide at 12.5 mg/kg for 30 mins prior to last dose and measured after 30 mins by HPLC analysis. Format: functional, organism-based. To be noted: dose 3-10 mg/kg, time 16.5 hrs.

Chain of CYP2C19 (P33261 whole entry): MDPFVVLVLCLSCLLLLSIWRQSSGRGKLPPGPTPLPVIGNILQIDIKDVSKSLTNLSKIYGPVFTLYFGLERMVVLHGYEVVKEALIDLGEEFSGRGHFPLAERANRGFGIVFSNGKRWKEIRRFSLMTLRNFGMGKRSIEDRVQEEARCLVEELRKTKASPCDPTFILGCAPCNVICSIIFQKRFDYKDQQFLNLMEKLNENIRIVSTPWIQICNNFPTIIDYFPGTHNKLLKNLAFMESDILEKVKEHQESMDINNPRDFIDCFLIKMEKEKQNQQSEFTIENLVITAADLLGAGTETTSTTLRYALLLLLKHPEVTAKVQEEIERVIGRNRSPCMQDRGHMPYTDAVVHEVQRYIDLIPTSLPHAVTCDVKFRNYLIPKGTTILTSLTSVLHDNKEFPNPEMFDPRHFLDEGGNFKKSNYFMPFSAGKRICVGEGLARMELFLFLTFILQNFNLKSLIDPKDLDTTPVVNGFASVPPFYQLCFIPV
Chain of CYP2D6 (P10635 whole entry): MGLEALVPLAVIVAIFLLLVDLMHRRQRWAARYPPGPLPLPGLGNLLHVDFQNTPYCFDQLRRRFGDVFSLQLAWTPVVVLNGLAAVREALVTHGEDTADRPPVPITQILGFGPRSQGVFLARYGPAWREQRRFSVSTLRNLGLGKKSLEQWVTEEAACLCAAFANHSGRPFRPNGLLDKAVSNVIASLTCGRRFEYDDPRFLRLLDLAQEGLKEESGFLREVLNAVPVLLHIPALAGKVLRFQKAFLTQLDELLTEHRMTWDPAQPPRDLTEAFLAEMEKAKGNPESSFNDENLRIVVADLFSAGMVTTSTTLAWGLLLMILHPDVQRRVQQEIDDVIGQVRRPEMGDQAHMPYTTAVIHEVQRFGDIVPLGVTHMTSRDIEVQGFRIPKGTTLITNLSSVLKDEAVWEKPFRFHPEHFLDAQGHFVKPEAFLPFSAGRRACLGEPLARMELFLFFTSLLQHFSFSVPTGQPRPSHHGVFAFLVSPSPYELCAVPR

As for `NC(=O)[C@@H]1C[C@H](F)CN1Cc1ccc2oc(-c3ccc(F)cc3)cc2c1`, the half-life at 1 µM in [1] was 1.48 h; in data set [8], 10.4 h; in data set [22], 2.45 h. Also, in [2], the fraction unbound at 5 h, up to 10 µM was 0.0029. The inhibition entry in [3] was “Active”. The results for the half-life in data set [4] and in [10] were 3.37 h and 4.22 h, respectively. The CLint scaled at 1 µM was determined as 10.1 mL/min/kg in data set [5], 7.5 mL/min/kg in data set [14] and 6.9 mL/min/kg in data set [15]. Also, the inhibition at 10 min, 10 µM in data set [6] is -3.37%. Also, the Kp at 0.25 h in [7] amounted to 10.4. The figures for the Cmax in data set [9] and in data set [13] were 273 ng/mL and 436 ng/mL, respectively. For the same compound, in [11], the bioavailability is 150%. In data set [12], the fraction unbound at 5 h, 1 µM is 0.0036. Further, in data set [16], the inhibition at 0.75 h, 10 µM worked out at 75.9%. Moreover, the result in data set [17] and in data set [24] was Active. Moreover, the area under the curve AUC(0-t) at 24 h in data set [18] was found to be 2280 ng·h/mL; in data set [19], 7950 ng·h/mL. Further, the IC50 was > 10000 nM in [20] and 37 nM in data set [21]. In data set [23], this compound displayed a clearance of 54.2 mL/min/kg.
